Entries after “also recorded” stand apart in the source; their conditions may differ.
Tests used:
[1] = system: rat brain lactate dehydrogenase; assay: Inhibition of rat brain lactate dehydrogenase (rat brain homogenate); format: biochemical; conditions: for Relative Activity (%) Rat Brain: rat brain homogenate, 0.24 mM pyruvate, 0.1 mM NADH, pH 7.2, 25° C.
Procedure: (§1) Each of the enzymes was assayed by procedures in which change of absorbance at 340 nm due to NADH was followed essentially as described by Bergmeyer (1974, Methods of Enzymatic Analysis, 2nd Eng. Ed., Verlag Chemie Weinheim Academic Press, N.Y.) with the following exceptions. Phosphofructokinase was assayed according to the method of Lai et al (1984, J. Neurochem., 42:438-446). NAD^+ -linked isocitrate dehydrogenase was assayed as described by Lai and Clark (1976, Biochem. J., 154:423-432). Pyruvate and α-ketoglutarate dehydrogenase complexes were respectively assayed according to the methods of Lai and Sheu (1985, J. Neurochem., 45:1861-1868) and Lai and Cooper (1986) (J. Neurochem, 47:1376-1386).
The reaction mixture (1 ml) contained 0.24 mM sodium pyruvate, 0.1 mM
NADH, 100 mM potassium phosphate buffer (pH 7.2) and either purified
bovine heart lactate dehydrogenase (0.01 U) or rat brain homogenate
containing ~0.02 U of lactate dehydrogenase activity; 25° C.
Since APADpyruvate adduct and RAP have a tendency to revert to pyruvate
they were added to the reaction mixture just prior to addition of enzyme.
Because the kinetics obtained with tightbinding inhibitors depends on the
order of addition of substrates and inhibitors the enzyme was always adde
last. Each value is the average of at least 3 determinations. Each of the […]

glutamate dehydrogenase = molecular target: T1, glutamate dehydrogenase (Rattus norvegicus, UniProt P10860); assay: Rat brain glutamate dehydrogenase with RAP; format: biochemical; conditions: 20 μM RAP
T1 construct: Commercial and rat brain glutamate dehydrogenases; from tissue; host or cells: rat brain
T1 sequence (P10860 54-558): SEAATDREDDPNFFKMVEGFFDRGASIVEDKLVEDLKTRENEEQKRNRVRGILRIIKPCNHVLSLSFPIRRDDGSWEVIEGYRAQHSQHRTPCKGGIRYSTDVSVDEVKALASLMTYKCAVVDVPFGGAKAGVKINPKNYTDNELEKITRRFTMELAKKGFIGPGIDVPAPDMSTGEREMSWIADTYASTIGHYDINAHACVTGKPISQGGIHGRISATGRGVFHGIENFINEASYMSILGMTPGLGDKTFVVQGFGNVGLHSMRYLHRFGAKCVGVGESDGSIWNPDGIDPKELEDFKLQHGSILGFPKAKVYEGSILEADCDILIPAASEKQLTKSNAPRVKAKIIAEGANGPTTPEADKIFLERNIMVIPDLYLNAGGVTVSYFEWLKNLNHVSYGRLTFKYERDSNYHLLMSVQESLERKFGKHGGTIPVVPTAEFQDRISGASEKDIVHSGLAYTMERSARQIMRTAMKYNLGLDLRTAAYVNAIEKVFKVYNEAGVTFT
Procedure: as §1

[2] = molecular target: T2, mitochondrial pig heart malate dehydrogenase (Sus scrofa, UniProt P00346); assay: Commercial mitochondrial malate dehydrogenase with RAP; format: biochemical; conditions: 20 μM RAP
T2 construct: purchased Boehringer Mannheim Corp. (Indianapolis); host or cells: pig heart
T2 sequence (P00346 25-338): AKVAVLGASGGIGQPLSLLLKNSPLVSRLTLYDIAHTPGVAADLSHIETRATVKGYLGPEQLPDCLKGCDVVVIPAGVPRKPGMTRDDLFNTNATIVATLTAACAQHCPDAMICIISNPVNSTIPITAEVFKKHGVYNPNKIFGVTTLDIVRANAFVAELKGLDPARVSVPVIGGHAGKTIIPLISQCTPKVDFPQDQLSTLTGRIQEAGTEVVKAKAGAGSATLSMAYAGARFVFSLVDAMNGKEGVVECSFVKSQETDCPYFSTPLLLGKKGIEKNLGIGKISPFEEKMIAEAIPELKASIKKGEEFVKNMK
Excerpt: Enzymes and enzyme assays. Rabbit muscle glyceraldehyde-3-phosphate dehydrogenase (80 U/mg: ammonium sulfate suspension), rabbit muscle glycerol-3-phosphate dehydrogenase (40 U/mg; ammonium sulfate suspension),beef liver glutamate dehydrogenase (120 U/mg: in 50% glycerol), mitochondrial pig heart malate dehydrogenase (1100 U/mg; in 50% glycerol) and yeast hexokinase (140 U/mg; ammonium sulfate suspension) were purchased from Boehringer Mannheim Corp. (Indianapolis). Beef heart lactate dehydrogenase (280 U/mg) was purchased from Worthington Biochemical Corporation (Freehold, N.J.). Porcine heart L-alanine aminotransferase (130 U/mg), rabbit muscle phosphofructokinase (140 U/mg; ammonium sulfate suspension), bovine heart α-ketoglutarate (8 U/mg) and pyruvate (5 U/mg) dehydrogenase complexes, sodium pyruvate, L-methionine-SR-sulfoximine, DL-vinylglycine, NAD^+, NADH and NAD^+ analogues (3-acetylpyridine, thionicotinamide, and 3-pyridinealdehyde adenine dinucleotides) were purchased from Sigma Chemical Company (St. Louis, Mo.).
Each of the enzymes was assayed by procedures in which change of absorbance at 340 nm due to NADH was followed essentially as described by Bergmeyer (1974, Methods of Enzymatic Analysis, 2nd Eng. Ed., Verlag Chemie Weinheim Academic Press, N.Y.) with the following exceptions. […]

[3] = molecular target: T3, glyceraldehyde-3-phosphate dehydrogenase (Rattus norvegicus, UniProt P04797); assay: Rat brain glyceraldehyde-3-phosphate dehydrogenase with RAP; format: biochemical; conditions: 20 μM RAP
T3 construct: from tissue; host or cells: rat brain
T3 sequence (P04797 whole entry): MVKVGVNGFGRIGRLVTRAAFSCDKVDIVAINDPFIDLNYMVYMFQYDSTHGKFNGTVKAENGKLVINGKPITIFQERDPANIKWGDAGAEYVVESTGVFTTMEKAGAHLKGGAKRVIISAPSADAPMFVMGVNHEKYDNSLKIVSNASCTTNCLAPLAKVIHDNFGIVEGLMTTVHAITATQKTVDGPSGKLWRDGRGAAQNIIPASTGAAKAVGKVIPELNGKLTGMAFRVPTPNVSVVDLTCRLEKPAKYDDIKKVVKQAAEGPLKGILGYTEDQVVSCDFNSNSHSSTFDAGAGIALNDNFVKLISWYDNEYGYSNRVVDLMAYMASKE
Procedure: as §1

rats = assay: Effects of RAP in vivo, intravenous administration to rats; parameters: species or system rat; conditions: 20 μmole/kg
Procedure: Animals. Brain tissue was obtained from young adult male Wistar rats (45-50 days old). In one series of experiments, rats that had previously been fed ad libidum were anesthetized with 4% halothane and a V-3 cannula was inserted in the femoral vein. The animals were immobilized by taping them to a lead brick. After they had recovered sufficiently, they were injected with the RAP solution. After initial observation for any side-reactions, the rats were untaped and their wounds were closed under anesthesia. The rats were then placed back in their cages for further observation.
The animals survived for 3 weeks before being killed.

Nc1ncnc2c1ncn2[C@@H]1O[C@H](COP(=O)(O)OP(=O)(O)OC[C@H]2O[C@@H](N3C=CC(CC(=O)C(=O)O)C(C=O)=C3)[C@H](O)[C@@H]2O)[C@@H](O)[C@H]1O (stereo partly shown) [RAP, 3(-4-(reduced 3-pyridinealdehyde-adeninedinucleotide))-pyruvate]
Relative Activity (%) Rat Brain ([1]; additive 42 nM): 80%
Relative Activity (%) Rat Brain ([1]; additive 84 nM): 56%
Relative Activity (%) Rat Brain ([1]; additive 132 nM): 43%
Relative Activity (%) Rat Brain ([1]; additive 180 nM): 30%
IC50 ([1]; standard reaction of Table 1, read-out: concentration required to inhibit the standard reaction by 50%): ~100 nM
effect on rat brain glutamate dehydrogenase (glutamate dehydrogenase): little or no effect
inhibition at 20 µM (glutamate dehydrogenase): ≤ 20%
inhibition at 20 µM [2]: ≤ 20%
effect on rat brain glyceraldehyde-3-phosphate dehydrogenase [3]: little or no effect
side effects as judged by gross inspection of behavior (rats): no noticeable untoward effects; also recorded: no side effects were noted
survival before being killed (rats): 3 weeks
growth and feeding after injection (rats; 3 weeks): grew and fed normally
gross post-mortem examination (rats; after 3 weeks): no obvious tissue damage

Source: patent publication US4950602A, “Inhibition of lactate production by pyruvate adducts” (Cornell Research Foundation, Inc., priority 1987, dated 1990)
